From patent US20090111778A1, “2-Keto-Oxazoles as Modulators of Fatty Acid Amide Hydrolase” (priority 2005, published 2009)
Like-named read-outs stand apart in the source and are kept apart here.

Columns and labels:
[1] = biological target: T1, rat FAAH (Rattus norvegicus, UniProt P97612); assay: Assay Method 2: FAAH assay, hydrolysis of 3H-anandamide by homogenate of SK-N-MC cells transfected with rat FAAH; type: biochemical; conditions: T84 or transfected SK-N-MC cell homogenate, 3H-AEA tracer 80 nM, rt 1 h, pH 9
T1 construct: expressed in transfected cells
T1 sequence (P97612 1-579): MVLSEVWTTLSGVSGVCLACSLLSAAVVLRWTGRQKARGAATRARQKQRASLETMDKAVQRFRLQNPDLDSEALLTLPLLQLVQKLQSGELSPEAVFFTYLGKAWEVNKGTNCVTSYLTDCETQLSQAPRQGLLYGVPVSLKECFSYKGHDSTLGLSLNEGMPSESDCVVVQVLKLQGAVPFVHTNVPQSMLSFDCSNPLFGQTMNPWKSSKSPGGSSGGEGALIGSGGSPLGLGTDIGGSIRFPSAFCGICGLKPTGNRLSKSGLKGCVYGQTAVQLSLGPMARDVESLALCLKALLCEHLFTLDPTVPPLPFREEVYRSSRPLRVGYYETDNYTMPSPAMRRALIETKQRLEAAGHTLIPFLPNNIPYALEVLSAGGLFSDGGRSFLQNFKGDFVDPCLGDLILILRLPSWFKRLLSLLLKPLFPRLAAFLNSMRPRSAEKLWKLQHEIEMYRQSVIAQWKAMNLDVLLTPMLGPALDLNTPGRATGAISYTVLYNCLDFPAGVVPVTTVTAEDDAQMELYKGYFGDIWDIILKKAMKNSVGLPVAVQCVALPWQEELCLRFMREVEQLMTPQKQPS
Description: A. Transfection of Cells with Rat FAAH A 10-cm tissue culture dish with a confluent monolayer of SK-N-MC cells was split 2 days (d) prior to transfection. Using sterile technique, the media was removed and the cells were detached from the dish by the addition of trypsin. One fifth of the cells were then placed onto a new 10-cm dish. Cells were grown in a 37° C. incubator with 5% CO2 in Minimal Essential Media Eagle with 10% Fetal Bovine Serum. After 2 d, cells were approximately 80% confluent. These cells were removed from the dish with trypsin and pelleted in a clinical centrifuge. The pellet was re-suspended in 400 μL complete media and transferred to an electroporation cuvette with a 0.4 cm gap between the electrodes. Supercoiled rat FAAH cDNA (1 μg) was added to the cells and mixed. The voltage for the electroporation was set at 0.25 kV, and the capacitance was set at 960 μF. After electroporation, the cells were diluted into complete media (10 mL) and plated onto four 10-cm dishes. Because of the variability in the efficiency of electroporation, four different concentrations of cells were plated. The ratios used were 1:20, 1:10, and 1:5, with the remainder of the cells being added to the fourth dish. The cells were allowed to recover for 24 h before adding the selection media (complete media with 600 μg/mL G418). After 10 d, dishes were analyzed for surviving colonies of cells. Dishes with well-isolated colonies were used. Cells from individual colonies were isolated and tested. […] B. FAAH Assay […] The reaction mixture was incubated at rt for 1 h. During the incubation, 96-well Multiscreen filter plates (catalog number MAFCNOB50; Millipore, Bedford, Mass., USA) were loaded with 25 μL of activated charcoal (Multiscreen column loader, catalog number MACL09625, Millipore) and washed once with 100 μL of MeOH. Also during the incubation, 96-well DYNEX MicroLite plates (catalog number NL510410) were loaded with 100 μL of MicroScint40 (catalog number 6013641, Packard Bioscience, Meriden, Conn., USA). After the 1 h incubation, 60 μL of the reaction mixture were transferred to the charcoal plates, which were then assembled on top of the DYNEX plates using Centrifuge Alignment Frames (catalog number MACF09604, Millipore). The unbound labeled ethanolamine was centrifuged through to the bottom plate (5 min at 2000 rpm), which was preloaded with the scintillant, as described above. The plates were sealed and left at rt for 1 h before counting on a Hewlett Packard TopCount.

[2] = biological target: T2, human FAAH (Homo sapiens, UniProt O00519); assay: Assay Method 1: FAAH assay, hydrolysis of 3H-anandamide by homogenate of SK-N-MC cells transfected with human FAAH; type: biochemical
T2 construct: expressed in transfected cells
T2 sequence (O00519 1-579): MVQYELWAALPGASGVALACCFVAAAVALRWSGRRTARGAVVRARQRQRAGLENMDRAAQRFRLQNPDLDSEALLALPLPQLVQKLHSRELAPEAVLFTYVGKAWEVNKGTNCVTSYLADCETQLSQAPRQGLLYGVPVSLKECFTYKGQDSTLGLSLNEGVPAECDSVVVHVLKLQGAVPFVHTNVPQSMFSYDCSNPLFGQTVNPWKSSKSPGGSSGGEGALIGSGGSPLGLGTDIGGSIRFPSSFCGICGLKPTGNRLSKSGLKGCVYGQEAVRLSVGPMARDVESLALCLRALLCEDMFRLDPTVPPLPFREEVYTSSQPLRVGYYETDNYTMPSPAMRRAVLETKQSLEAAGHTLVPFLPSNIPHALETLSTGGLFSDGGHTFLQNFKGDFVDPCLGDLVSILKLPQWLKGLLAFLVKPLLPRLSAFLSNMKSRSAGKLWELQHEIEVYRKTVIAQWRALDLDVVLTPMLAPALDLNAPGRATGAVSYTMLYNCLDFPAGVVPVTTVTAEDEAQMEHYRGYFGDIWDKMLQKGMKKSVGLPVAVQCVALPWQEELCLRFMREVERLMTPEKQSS
Description: A. Transfection of Cells with Human FAAH
A 10-cm tissue culture dish with a confluent monolayer of SK-N-MC cells was split 2 days (d) prior to transfection. Using sterile technique, the media was removed and the cells were detached from the dish by the addition of trypsin. One fifth of the cells were then placed onto a new 10-cm dish. Cells were grown in a 37° C. incubator with 5% CO2 in Minimal Essential Media Eagle with 10% Fetal Bovine Serum. After 2 d, cells were approximately 80% confluent. These cells were removed from the dish with trypsin and pelleted in a clinical centrifuge. The pellet was re-suspended in 400 μL complete media and transferred to an electroporation cuvette with a 0.4 cm gap between the electrodes. Supercoiled human FAAH cDNA (1 μg) was added to the cells and mixed. The voltage for the electroporation was set at 0.25 kV, and the capacitance was set at 960 μF. After electroporation, the cells were diluted into complete media (10 mL) and plated onto four 10-cm dishes. Because of the variability in the efficiency of electroporation, four different concentrations of cells were plated. The ratios used were 1:20, 1:10, and 1:5, with the remainder of the cells being added to the fourth dish. The cells were allowed to recover for 24 h before adding the selection media (complete media with 600 μg/mL G418). After 10 d, dishes were analyzed for surviving colonies of cells. Dishes with well-isolated colonies were used. Cells from individual colonies were isolated and tested.
The assay mixture consisted of […] of the cell homogenate, 10 μL of the test compound, and 40 μL of anandamide [1-^3H-ethanolamine] (3H-AEA, Perkin-Elmer, 10.3 Ci/mmol), which was added last, for a final tracer concentration of 80 nM. The reaction mixture was incubated at rt for 1 h. During the incubation, 96-well Multiscreen filter plates (catalog number MAFCNOB50; Millipore, Bedford, Mass., USA) were loaded with 25 μL of activated charcoal (Multiscreen column loader, catalog number MACL09625, Millipore) and washed once with 100 μL of MeOH. Also during the incubation, 96-well DYNEX MicroLite plates (catalog number NL510410) were loaded with 100 μL of MicroScint40 (catalog number 6013641, Packard Bioscience, Meriden, Conn., USA). After the 1 h incubation, 60 μL of the reaction mixture were transferred to the charcoal plates, which were then assembled on top of the DYNEX plates using Centrifuge Alignment Frames (catalog number MACF09604, Millipore). The unbound labeled ethanolamine was centrifuged through to the bottom plate (5 min at 2000 rpm), which was preloaded with the scintillant, as described above. The plates were sealed and left at rt for 1 h before counting on a Hewlett Packard TopCount.

[3] = human FAAH, T84 or transfected SK-N-MC cell homogenate, 3H-AEA tracer 80 nM, rt 1 h, pH 9, read-out: Assay 1 IC50

Structure (SMILES) | IC50 [1] [nM] | IC50 [2, 3] [nM] | IC50 [2] [nM]
O=C(CCCC1CCN(Cc2ccc(F)c(F)c2)CC1)c1ncco1 [Example 115, 4-[1-(3,4-Difluoro-benzyl)-piperidin-4-yl]-1-oxazol-2-yl-butan-1-one] | 750 | 78 | 
O=C(CCCC1CCN(Cc2ccccc2)CC1)c1ncc(-c2ccco2)o1 [Example 121, 4-(1-Benzyl-piperidin-4-yl)-1-(5-furan-2-yl-oxazol-2-yl)-butan-1-one] | 323 | 258 | 
Cc1ccc(CN2CCC(CCCC(=O)c3ncco3)CC2)cc1 [Example 18, 4-[1-(4-Methyl-benzyl)-piperidin-4-yl]-1-oxazol-2-yl-butan-1-one] | 1000 | 400 | 
CC(C)S(=O)(=O)N1CCC(CCCC(=O)c2ncco2)CC1 [Example 56, 1-Oxazol-2-yl-4-[1-(propane-2-sulfonyl)-piperidin-4-yl]-butan-1-one] | 3350 |  | 142
O=C(CCCC1CCN(Cc2ccc(F)cc2F)CC1)c1ncco1 [Example 114, 4-[1-(2,4-Difluoro-benzyl)-piperidin-4-yl]-1-oxazol-2-yl-butan-1-one] | 325 | 110 | 
CCCCS(=O)(=O)N1CCC(CCCC(=O)c2ncco2)CC1 [Example 58, 4-[1-(Butane-1-sulfonyl)-piperidin-4-yl]-1-oxazol-2-yl-butan-1-one] | 720 | 60 | 
COc1ccc(CN2CCC(CCCC(=O)c3ncco3)CC2)cc1 [Example 16, 4-[1-(4-Methoxy-benzyl)-piperidin-4-yl]-1-oxazol-2-yl-butan-1-one] | 663 |  | 132
O=C(CCCC1CCN(Cc2ccc(N3CCOCC3)nc2)CC1)c1ncco1 [Example 107, 4-[1-(6-Morpholin-4-yl-pyridin-3-ylmethyl)-piperidin-4-yl]-1-oxazol-2-yl-butan-1-one] | 2000 | 180 | 
O=C(CCCC1CCN(C(=O)Cc2ccccc2)CC1)c1ncco1 [Example 27, 1-Oxazol-2-yl-4-(1-phenylacetyl-piperidin-4-yl)-butan-1-one] | 1300 | 500 | 
O=C(CCCC1CCN(Cc2ccc(Cl)c(C(F)(F)F)c2)CC1)c1ncco1 [Example 133, 4-[1-(4-Chloro-3-trifluoromethyl-benzyl)-piperidin-4-yl]-1-oxazol-2-yl-butan-1-one] | 2000 | 460 | 
O=C(CCCC1CCN(Cc2ccc(-n3ccnc3)cc2)CC1)c1ncco1 [Example 141, 4-[1-(4-Imidazol-1-yl-benzyl)-piperidin-4-yl]-1-oxazol-2-yl-butan-1-one] | 1500 | 84 | 

Now those with a lower IC50 [1], led by results:

IC50 [1] [nM] | IC50 [2, 3] [nM] | Structure (SMILES) | IC50 [2] [nM]
280 | 200 | O=C(CCCC1CCN(Cc2c(F)cc(F)cc2F)CC1)c1ncco1 [Example 123, 1-Oxazol-2-yl-4-[1-(2,4,6-trifluoro-benzyl)-piperidin-4-yl]-butan-1-one] | 
250 | 240 | O=C(CCCC1CCN(C(=O)COCc2ccccc2)CC1)c1ncco1 [Example 34, 4-[1-(2-Benzyloxy-acetyl)-piperidin-4-yl]-1-oxazol-2-yl-butan-1-one] | 
95 | 36 | O=C(CCCC1CCN(Cc2ccc(Br)c(Br)c2)CC1)c1ncco1 [Example 11, 4-[1-(3,4-Dibromo-benzyl)-piperidin-4-yl]-1-oxazol-2-yl-butan-1-one] | 
84 | 7 | CC(C)(C)c1ccc(CN2CCC(CCCC(=O)c3ncco3)CC2)cc1 [Example 83, 4-[1-(4-tert-Butyl-benzyl)-piperidin-4-yl]-1-oxazol-2-yl-butan-1-one] | 
81 | 4 | O=C(CCCC1CCN(Cc2ccc3c(c2)OC(F)(F)O3)CC1)c1ncco1 [Example 125, 4-[1-(2,2-Difluoro-benzo[1,3]dioxol-5-ylmethyl)-piperidin-4-yl]-1-oxazol-2-yl-butan-1-one] | 
57 | 8 | CCCCCCCCCN1CCC(CCCC(=O)c2ncco2)CC1 [Example 127, 4-(1-Nonyl-Piperidin-4-yl)-1-oxazol-2-yl-butan-1-one] | 
56 | 46 | O=C(CCCC1CCN(C(=O)CCc2ccccc2)CC1)c1ncco1 [Example 36, 1-Oxazol-2-yl-4-[1-(3-phenyl-propionyl)-piperidin-4-yl]-butan-1-one] | 
55 | 10 | CC(C)COC(=O)N1CCC(CCCC(=O)c2ncco2)CC1 [Example 68, 4-(4-Oxazol-2-yl-4-oxo-butyl)-piperidine-1-carboxylic acid isobutyl ester] | 
14 | 6 | CCOC(=O)N1CCC(CCCC(=O)c2ncco2)CC1 [Example 64, 4-(4-Oxazol-2-yl-4-oxo-butyl)-piperidine-1-carboxylic acid ethyl ester] | 
